Data set [1] has as its system human glioblastoma U-87 MG tumor cells. The data set can be described thus: U-87 MG glioblastoma xenograft (Example 19). It is filed as in vivo, female NCr nu/nu mice. The protocol:
Orin 1001 was administered by oral gavage in a xenograft mouse model using female NCr nu/nu mice injected subcutaneously with human glioblastoma U-87 MG tumor cells, a glioblastoma multiforme (GBM) cell line. Animals were assigned to 4 groups (n=6/group); Vehicle control administered by oral gavage for 28 days, Orin 1001 administered via oral gavage at 300 mg/kg/day for 28 consecutive days, paclitaxel administered weekly by iv at 15 mg/kg, or Orin 1001 administered in combination with paclitaxel.
The percent tumor growth delay was calculated using the following equation: TGD (%)=[T-C/C]×100; where T-C is the difference in time to tumor endpoint from Treated (T) and Control (C).
The time to tumor endpoint (TTE) for each animal was further calculated using the following equation: TTE (days)=log 10 (endpoint volume, mm^3)-b/m, where b is the intercept and m is the slope of the line obtained by linear regression of the log-transformed tumor growth data set.

The subject of another data set is RPMI 8226 cells. The data set can be described thus: XBP1s level induced in RPMI 8226 cells. It is filed as cell-based, human. The protocol: (§1) Briefly, cells were grown in standard conditions and spread into 96 well tissue culture plates. Cells were treated with compounds with indicated concentration using serial dilutions. DTT (dithiothreitol) or compounds were added at the same time and cells were harvested after indicated hour's treatment. Cells treated with DTT alone were used as 100% XBP1s positive controls and cell left untreated were used as base line XBP1s level.
(§2) Splicing Assay: Total RNA was isolated from cells treated with compounds using Applied Biosystems RNAqueous kit. 1 μg of total RNA was reverse transcribed using Oligo dt (12-18) (Invitrogen). The cDNA was then amplified at 95° C. for 8 min and 30 sec, then 40 cycles at 95° C. for 15 sec and 63° C. for 1 min. Samples were run against a purified standard curve for both spliced and unspliced XBP1, and further normalized to internal house-keeping gene GAPDH.
The same methods were used as above for Lestaurtinib.

Another data set deals with XBP1s. The data set can be described thus: Determination of XBP1s level induced by various compounds (RT-qPCR splicing assay), several cell lines. The settings on record: in a time, cell or concentration dependent manner. It is filed as cell-based, human. The protocol:
as §1, with “This method applies to any mammalian cell line but was typically applied to human MM1s myeloma cells for EC50 and RPMI […] plasmacytoma cells for confirmation of selected compounds. Briefly,” for “Briefly,”
as §2

In data set [2] the test system is human breast adenocarcinoma MDA-MB231 tumor cells. It is filed as in vivo. The note with it: Orin 1001 300 mg/kg where given; paclitaxel 10 mg/kg iv weekly; n=10/group. The protocol:
Orin 1001 was administered by oral gavage in combination with paclitaxel in a xenograft mouse model using female NCr nu/nu mice (n=10 in each group) injected subcutaneously with human breast adenocarcinoma MDA-MB231 tumor cells. To evaluate the effect of Orin 1001 in combination with paclitaxel, Orin 1001 was administered via oral gavage at 75, 150 or 300 mg/kg/day in combination with paclitaxel at 10 mg/kg iv, weekly (n=10/group) for up to 60 days.

Data set [3] relates to human ovarian carcinoma A2780 tumor cells. The experiment in a line: A2780 ovarian carcinoma xenograft (Example 18). It is filed as in vivo, female NCr nu/nu mice. The settings on record: Orin 1001 300 mg/kg/day oral 28 days; paclitaxel 15 mg/kg iv weekly; endpoint 2000 mm^3 or Day 60. The protocol: Orin 1001 was administered by oral gavage in a xenograft mouse model using female NCr nu/nu mice injected subcutaneously with human ovarian carcinoma A2780 tumor cells. Animals were assigned to 4 groups (n=6/group); Vehicle control administered by oral gavage for 28 days, Orin 1001 administered via oral gavage at 300 mg/kg/day for 28 consecutive days, paclitaxel administered weekly by iv at 15 mg/kg, or Orin 1001 administered in combination with paclitaxel.
The percent tumor growth delay was calculated using the following equation: TGD (%)=[T-C/C]×100, where T-C is the difference in time to tumor endpoint from Treated (T) and Control (C).

The next data set concerns the target T1, IRE1α (Mus musculus, UniProt Q9EQY0).
T1 construct: from tissue; host or cells: liver of BALB/c mice (in vivo)
The data set can be described thus: Liver PD screening assay: XBP-1 splicing analysis of liver after tunicamycin (Example 25). It is filed as in vivo, BALB/c mice. The procedure: Example 25 was related to comparative PD/PK data of Orin 1001 VS compound 4315, as its structure shown below, which is an earlier lead of this series of compounds. Tunicamycin was used herein to activate IRE1, then Orin 1001 (also called 4485) or 4315 were given to inhibit the activating effect. […] Each gel panel represents one mouse liver sample as in the figure.
BALB/c mice were injected intraperitoneally with 100 microliters at an equivalent dose of 1 mg/kg tunicamycin solution. Two hours after tunicamycin injection, mice were dosed with compound of interest either PO or IV. Following 2 hours for PO delivery of compound, mice were euthanized according to IACUC protocols using CO2 from a […] source. A 1 cm^3 fragment of the liver for homogenization and extraction of the RNA were collected for further analysis. Total RNA is harvested from cells or tissue using TRIzol according to the manufacturer's procedures. After ethanol precipitation and resuspension of the RNA, RiboGreen (Invitrogen) is used to quantify the yield and normalize the RNA concentration in the source tube containing isolated RNA. RT-PCR is performed by Oligo(dT) priming, and SuperScript II (Invitrogen) transcription using the Amplitaq Gold Kit (Applied Biosystems) according to the manufacturer's protocols. Primers for human XBP-1 are 5_-[…]-3_ (forward, Seq ID No. 8) and 5_-[…]-3_ (reverse, Seq ID No. 9), and for mouse are 5_-[…]-3_ (forward, Seq ID No. 10) and 5_-[…]-3 (Seq ID No. 11). All DNA oligos were purchased from IDT DNA Technologies. PCR is run on a Bio-Rad PTC-100 96-well thermocycler with heating at 94° C. for 30 s, annealing at 58° C. for 30 s, and polymerizing at 72° C. for 30 s for 35 cycles. Reactions are run on 4% precast NuSieve gels from Cambrex and visualized by ethidium bromide staining and UV excitation.
(§3) All PK experiments are standard tests that performed in either WuXi PharmaTech or Charels River Laboratory. 4315 and 4485 (Orin 1001) were dosed PO as a suspension in 1% microcellulose (Sigma) and 50% Sucrouse (Sigma).

A short description of data set [4]: Oral bioavailability test, mouse. The note with it: in vivo, 5 mg/kg dose. The protocol:
as §3

Data set [5] in a line: Oral bioavailability test, rat. The settings on record: in vivo, 10 mg/kg dose. The procedure: as §3
The nature of data set [6]: Oral bioavailability test, dog. The note with it: in vivo, 10 mg/kg dose. The protocol:
as §3

The mark [7] stands for this setting: Orin 1001 300 mg/kg/day oral 28 days, paclitaxel 15 mg/kg iv weekly, endpoint 2000 mm^3 or Day 60.

Where two headings read alike, the source gives them in different places.

T1 sequence (Q9EQY0 21-977): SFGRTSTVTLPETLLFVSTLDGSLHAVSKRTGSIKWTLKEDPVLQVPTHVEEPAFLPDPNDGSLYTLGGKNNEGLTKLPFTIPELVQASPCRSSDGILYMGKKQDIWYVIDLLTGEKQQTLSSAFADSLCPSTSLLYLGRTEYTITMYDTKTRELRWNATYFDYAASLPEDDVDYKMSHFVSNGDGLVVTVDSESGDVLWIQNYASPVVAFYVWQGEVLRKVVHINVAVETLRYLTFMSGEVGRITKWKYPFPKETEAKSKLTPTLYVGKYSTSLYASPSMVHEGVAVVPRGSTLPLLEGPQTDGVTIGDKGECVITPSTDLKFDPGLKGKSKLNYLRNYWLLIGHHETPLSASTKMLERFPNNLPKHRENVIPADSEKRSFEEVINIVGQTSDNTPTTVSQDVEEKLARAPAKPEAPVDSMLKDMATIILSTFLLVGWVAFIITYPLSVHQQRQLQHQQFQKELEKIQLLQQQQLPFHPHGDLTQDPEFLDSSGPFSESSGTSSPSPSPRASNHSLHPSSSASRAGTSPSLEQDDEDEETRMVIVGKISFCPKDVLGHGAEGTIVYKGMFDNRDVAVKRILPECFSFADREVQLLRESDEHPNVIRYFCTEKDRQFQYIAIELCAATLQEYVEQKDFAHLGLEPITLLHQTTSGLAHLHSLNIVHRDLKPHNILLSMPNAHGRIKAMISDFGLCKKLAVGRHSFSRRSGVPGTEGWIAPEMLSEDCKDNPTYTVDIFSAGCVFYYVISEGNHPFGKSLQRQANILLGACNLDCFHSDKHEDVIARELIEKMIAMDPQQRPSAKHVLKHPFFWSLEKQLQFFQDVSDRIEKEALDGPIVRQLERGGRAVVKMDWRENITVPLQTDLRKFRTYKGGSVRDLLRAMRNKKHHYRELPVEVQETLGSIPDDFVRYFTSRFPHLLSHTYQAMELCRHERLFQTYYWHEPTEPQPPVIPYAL

For the compound `CC(=O)O[C@H]1C(=O)[C@@]2(C)[C@H]([C@H](OC(=O)c3ccccc3)[C@]3(O)C[C@H](OC(=O)[C@H](O)[C@@H](NC(=O)c4ccccc4)c4ccccc4)C(C)=C1C3(C)C)[C@]1(OC(C)=O)CO[C@@H]1C[C@@H]2O` [Paclitaxel], the “percent tumor growth delay (TGD)” value in [1] (setting [7]) is 17%; in data set [3], 40%. The “time to tumor endpoint (TTE)” value in data set [1] (setting [7]) was 30.2 days. Moreover, in [1] (each agent alone), the “tumor delay effect over the control” value was “not very significant”. For the same compound, the “levels of XBP1s” value in the data set on RPMI 8226 cells (1 hour of treatment) is given as “high levels”; with RPMI 8226 cells (2 hours of treatment), “modest levels”; with RPMI 8226 cells (4 hours of treatment), “modest levels”. Also, the “induction of XBP1s” value in the data set with XBP1s is “able to induce XBP1s”. The partial regressions in data set [2] is on record as 1.
What is called bioavailability is the share of a dose that reaches the circulation, judged against a reference dose that is usually intravenous. Read a high bioavailability as good availability. With `Cc1c(-c2ccc(C(=O)NCCN3CCOCC3)cc2)c(=O)oc2c(C=O)c(O)ccc12` [compound 4315], the ED50 on IRE1α (read-out: ED50 (inhibition of XBP-1 splicing in liver), PO, 2 hours after tunicamycin 1 mg/kg ip, liver 2 hours after dosing, FIG. 23) is above 10 mg/kg; on IRE1α (read-out: ED50 (inhibition of XBP-1 splicing in liver), separate experiment), 50 mg/kg. The bioavailability in data set [4] was found to be 23%; in data set [5], 36%; in data set [6] it was 17%.

These data come from US20210260069A1, “IRE1a INHIBITOR IN COMBINATION WITH CANCER [sequence] AGENT FOR CANCER TREATMENT” (Fosun Orinove PharmaTech, Inc., priority 2018, published 2021).
